Legend:
wild buckwheat (POLCO) = assay: Postemergence greenhouse trial, % visual injury on wild buckwheat; assay type: in vivo, Polygonum convolvulus; conditions: alone, 35 g/ha
Procedure: (§1) Seeds of the desired test plant species were planted in Sun Gro MetroMix® 306 planting mixture, which typically has a pH of 6.0 to 6.8 and an organic matter content of about 30 percent, in plastic pots with a surface area of 103.2 square centimeters (cm^2). When required to ensure good germination and healthy plants, a fungicide treatment and/or other chemical or physical treatment was applied. The plants were grown for 7-36 days (d) in a greenhouse with an approximate 14-hour (h) photoperiod which was maintained at about 23° C. during the day and 22° C. during the night. Nutrients and water were added on a regular basis and supplemental lighting was provided with overhead metal halide 1000-Watt lamps as necessary. The plants were employed for testing when they reached the second or third true leaf stage.
(§2) Weighed amounts of technical material were dissolved in a volume of 97:3 volume per volume (v/v) acetone/dimethyl sulfoxide (DMSO) to stock solutions. […] The concentrated stock solutions were diluted with an aqueous mixture of 1.5% v/v of Agri-dex crop oil concentrate to provide the appropriate application rates. Compound requirements are based upon a 12 milliliter (mL) application volume at a rate of 187 liters per hectare (L/ha). Stocks solutions of the safeners were prepared following the same procedure. Spray solutions of the safeners and experimental compound mixtures were prepared by adding the stock solutions to the appropriate amount of dilution solution to form a 12 mL spray solution in two-way combinations. Formulated compounds were applied to the plant material with an overhead Mandel track sprayer equipped with 8002E nozzles calibrated to deliver 187 L/ha over an application area of 0.503 square meters (m^2) at a spray height of 18 inches (43 centimeters (cm)) above average plant canopy. Control plants were sprayed in the same manner with the solvent blank. All herbicide application (component a) rates are in g ae/ha and all safener (component b) rates are in g ai/ha.
(§3) The treated plants and control plants were placed in a greenhouse as described above and watered by sub-irrigation to prevent wash-off of the test compounds. After 20-22 d, the condition of the test plants as compared with that of the control plants was determined visually and scored on a scale of 0 to 100 percent where 0 corresponds to no injury and 100 corresponds to complete kill. The condition of the test plants was compared with that of the control plants as determined visually and scored on a scale of 0 to 100 percent, where 0 corresponds to no injury and 100 corresponds to complete kill. Colby's equation was used to determine the herbicidal effects expected from the mixtures.
(§4) The safener cloquintocet-mexyl was combined with compound 1, compound 2, compound 4, compound 5, and compound 6, and applied to corn/maize (ZEAMX) and spring wheat (TRZAS) and the phytotoxicity of the herbicidal compositions was measured. In addition, the efficacy of the herbicidal composition on velvetleaf (ABUTH, Abutilon theophrasti), pigweed (AMARE, Amaranthus retroflexus), winter rape (BRSNW, Brassica napus), lambsquarters (CHEAL, Chenopodium album), thistle (CIRAR, Cirsium arvense), nutsedge (CYPES, Cyperus esculentus), poinsettia (EPHHL, Euphorbia heterophylla), wild buckwheat (POLCO, Polygonum convolvulus), giant foxtail (SETFA, Setaria faberi), and chickweed (STEME, Stellaria media) was evaluated.
(§5) The safener cloquintocet-mexyl was combined with compound 1, compound 2, compound 3, compound 7, compound 8, compound 9, compound 10, compound 11, compound 12, compound 13, compound 14, compound 15, compound 16, compound 17, compound 18, compound 19, and compound 20, and applied to spring wheat (TRZAS), winter wheat (TRZAW), and spring barley (HORVS) and the phytotoxicity of the herbicidal compositions was measured. […]

lambsquarters (CHEAL) = assay: Postemergence greenhouse trial, % visual injury on lambsquarters; assay type: in vivo, Chenopodium album; conditions: Chenopodium album, post-emergence; alone, 35 g/ha; read-out: % visual injury, Ob
Procedure: as §1, §2, §3, §4, §5

spring wheat (TRZAS) = assay: Postemergence greenhouse trial, % visual injury on spring wheat; assay type: in vivo, Triticum aestivum; conditions: alone, 35 g/ha
Procedure: as §1, §2, §3, §4, §5

corn/maize (ZEAMX) = assay: Postemergence greenhouse trial, % visual injury on corn/maize; assay type: in vivo, Zea mays; conditions: for % visual injury, Ob: alone, 35 g/ha; for % visual injury, observed (Ob): ZEAMX
Procedure: as §1, §2, §3
as §4, with “evaluated. […]” for “evaluated.”

velvetleaf (ABUTH) = assay: Postemergence greenhouse trial, % visual injury on velvetleaf; assay type: in vivo, Abutilon theophrasti; conditions: alone, 35 g/ha
Procedure: as §1, §2, §3, §4, §5

chickweed (STEME) = assay: Postemergence greenhouse trial, % visual injury on chickweed; assay type: in vivo, Stellaria media; conditions: alone, 35 g/ha
Procedure: as §1, §2, §3
as §4, with “evaluated. […]” for “evaluated.”

winter rape (BRSNW) = assay: Postemergence greenhouse trial, % visual injury on winter rape; assay type: in vivo, Brassica napus; conditions: Brassica napus, post-emergence; alone, 35 g/ha; read-out: % visual injury, Ob
Procedure: as §1, §2, §3
as §4, with “evaluated. […]” for “evaluated.”

thistle (CIRAR) = assay: Postemergence greenhouse trial, % visual injury on thistle; assay type: in vivo, Cirsium arvense; conditions: Cirsium arvense, post-emergence; alone, 35 g/ha; read-out: % visual injury, Ob
Procedure: as §1, §2, §3
as §4, with “evaluated. […]” for “evaluated.”

pigweed (AMARE) = assay: Postemergence greenhouse trial, % visual injury on pigweed; assay type: in vivo, Amaranthus retroflexus; conditions: for pest or weed control at 35 g/ha: Amaranthus retroflexus, post-emergence, alone, read-out: % visual injury, Ob; for % visual injury, observed (Ob): AMARE
Procedure: as §1, §2, §3
as §4, with “evaluated. […]” for “evaluated.”
(§6) The safener cloquintocet-acid and a number of agriculturally acceptable esters and salts (-mexyl, -dimethylammonium salt and -triethylammonium salt) were combined in varying ratios with compound 1 and applied to spring wheat (TRZAS), winter wheat (TRZAW), and spring barley (HORVS), and the phytotoxicity of the herbicidal compositions was measured. […]

wild pansy (VIOTR) = assay: Postemergence greenhouse trial, % visual injury on wild pansy; assay type: in vivo, Viola tricolor; conditions: alone, 35 g/ha
Procedure: as §1, §2
as §3, with “mixtures. […]” for “mixtures.”

giant foxtail (SETFA) = assay: Postemergence greenhouse trial, % visual injury on giant foxtail; assay type: in vivo, Setaria faberi; conditions: alone, 35 g/ha
Procedure: as §1
Weighed amounts of technical material were dissolved in a volume of 97:3 volume per volume (v/v) acetone/dimethyl sulfoxide (DMSO) to stock solutions. […] The concentrated stock solutions were diluted with an aqueous mixture of 1.5% v/v of Agri-dex crop oil concentrate to provide the appropriate application rates. Compound requirements are based upon a 12 milliliter (mL) application volume at a rate of 187 liters per hectare (L/ha). […]
as §3, with “Colby's equation was used to determine the herbicidal effects expected from the mixtures.” left out
The safener cloquintocet-mexyl was combined with compound 1, compound 2, compound 4, compound 5, and compound 6, and applied to corn/maize (ZEAMX) and spring wheat (TRZAS) and the phytotoxicity of the herbicidal compositions was measured. […]

nutsedge (CYPES) = assay: Postemergence greenhouse trial, % visual injury on nutsedge; assay type: in vivo, Cyperus esculentus; conditions: for % visual injury, observed (Ob): CYPES
Procedure: as §1, §2, §3
as §4, with “evaluated. […]” for “evaluated.”
as §6

common sorghum (SORVU) = assay: Postemergence greenhouse trial, % visual injury on common sorghum; assay type: in vivo, Sorghum vulgare; conditions: for % visual injury, observed (Ob): SORVU
Procedure: as §1, §2
as §3, with “mixtures. […]” for “mixtures.”
(§7) The safener cloquintocet-acid and a number of agriculturally acceptable esters and salts (-mexyl, -dimethylammonium salt and -triethylammonium salt) were combined in varying ratios with compound 1 and applied to spring wheat (TRZAS), winter wheat (TRZAW), and spring barley (HORVS), and the phytotoxicity of the herbicidal compositions was measured. In addition, the efficacy of the herbicidal composition on pigweed (AMARE, Amaranthus retroflexus), nutsedge (CYPES, Cyperus esculentus), common sunflower (HELAN, Helianthus annuus), and common sorghum (SORVU, Sorghum vulgare).

common sunflower (HELAN) = assay: Postemergence greenhouse trial, % visual injury on common sunflower; assay type: in vivo, Helianthus annuus
Procedure: as §1, §2, §3, §7

winter wheat (TRZAW) = assay: Postemergence greenhouse trial, % visual injury on winter wheat; assay type: in vivo, Triticum aestivum; conditions: TRZAW
Procedure: as §1, §2, §3, §5

COC(=O)c1nc(-c2ccc3ccn(C(=O)C(C)C)c3c2F)c(F)c(N)c1Cl [compound 4]
% visual injury, Ob (wild buckwheat (POLCO)): 100%
pest or weed control at 35 g/ha (lambsquarters (CHEAL)): 97%
% visual injury, Ob (spring wheat (TRZAS)): 40%
% visual injury, Ob (corn/maize (ZEAMX)): 35%
% visual injury, Ob (velvetleaf (ABUTH)): 80%
% visual injury, Ob (chickweed (STEME)): 93%
plant injury at 35 g/ha (winter rape (BRSNW)): 97%
pest or weed control at 35 g/ha (thistle (CIRAR)): 75%
pest or weed control at 35 g/ha (pigweed (AMARE)): 100%

COC(=O)c1nc(-c2ccc3ccn(C(C)=O)c3c2F)c(F)c(N)c1Cl [compound 3]
% visual injury, Ob (wild buckwheat (POLCO)): 97%
pest or weed control at 35 g/ha (lambsquarters (CHEAL)): 85%
% visual injury, Ob (spring wheat (TRZAS)): 30%
% visual injury, Ob (wild pansy (VIOTR)): 10%
% visual injury, Ob (giant foxtail (SETFA)): 60%
% visual injury, Ob (corn/maize (ZEAMX)): 0%
% visual injury, Ob (velvetleaf (ABUTH)): 50%
% visual injury, Ob (chickweed (STEME)): 70%
plant injury at 35 g/ha (winter rape (BRSNW)): 30%
% visual injury, Ob (nutsedge (CYPES); alone, 35 g/ha): 10%
pest or weed control at 35 g/ha (thistle (CIRAR)): 50%
pest or weed control at 35 g/ha (pigweed (AMARE)): 95%
% visual injury, Ob (common sorghum (SORVU); alone, 35 g/ha): 10%

CCN(CC)CC.O=C(O)COc1ccc(Cl)c2cccnc12 [CQC-TEA]
% visual injury, observed (Ob) (common sunflower (HELAN); safener alone 2.5 g/ha): 0%
% visual injury, observed (Ob) (common sunflower (HELAN); safener alone 5 g/ha): 0%
% visual injury, observed (Ob) (common sunflower (HELAN); safener alone 10 g/ha): 0%
% visual injury, observed (Ob) (common sunflower (HELAN); safener alone 20 g/ha): 0%
% visual injury, observed (Ob) (corn/maize (ZEAMX); safener alone 2.5 g/ha): 0%
% visual injury, observed (Ob) (corn/maize (ZEAMX); safener alone 5 g/ha): 0%
% visual injury, observed (Ob) (corn/maize (ZEAMX); safener alone 10 g/ha): 0%
% visual injury, observed (Ob) (corn/maize (ZEAMX); safener alone 20 g/ha): 0%
% visual injury, observed (Ob) (winter wheat (TRZAW); safener alone 2.5 g/ha): 0%
% visual injury, observed (Ob) (winter wheat (TRZAW); safener alone 5 g/ha): 0%
% visual injury, observed (Ob) (winter wheat (TRZAW); safener alone 10 g/ha): 0%
% visual injury, observed (Ob) (winter wheat (TRZAW); safener alone 20 g/ha): 0%
% visual injury, observed (Ob) (nutsedge (CYPES); safener alone 2.5 g/ha): 0%
% visual injury, observed (Ob) (nutsedge (CYPES); safener alone 5 g/ha): 0%
% visual injury, observed (Ob) (nutsedge (CYPES); safener alone 10 g/ha): 0%
% visual injury, observed (Ob) (nutsedge (CYPES); safener alone 20 g/ha): 0%
% visual injury, observed (Ob) (pigweed (AMARE); safener alone 2.5 g/ha): 0%
% visual injury, observed (Ob) (pigweed (AMARE); safener alone 5 g/ha): 0%
% visual injury, observed (Ob) (pigweed (AMARE); safener alone 10 g/ha): 0%
% visual injury, observed (Ob) (pigweed (AMARE); safener alone 20 g/ha): 0%
% visual injury, observed (Ob) (common sorghum (SORVU); safener alone 2.5 g/ha): 0%
% visual injury, observed (Ob) (common sorghum (SORVU); safener alone 5 g/ha): 0%
% visual injury, observed (Ob) (common sorghum (SORVU); safener alone 10 g/ha): 0%
% visual injury, observed (Ob) (common sorghum (SORVU); safener alone 20 g/ha): 0%

Reference: patent publication US9763445B2, “Safened herbicidal compositions comprising a pyridine carboxylic acid herbicide” (Dow AgroSciences, LLC, priority 2014, dated 2017)
